These are literature values, as cited in PubChem BioAssay AID1259409 (Chemical Carcinogenesis Research Information System (CCRIS), 2018).

SMILES strings stand for the structures.

This data set relates to rodent chemically induced tumor inhibition, incidence and multiplicity. The data set is described as follows: CCRIS tumor inhibitor studies.

Take `C[C@]12CC[C@H](OS(=O)(=O)O)CC1=CC[C@@H]1[C@@H]2CC[C@]2(C)C(=O)CC[C@@H]12`: the “tumour outcome (control, treated, inhibition, significance)” value was 68%, 41%, 40%, not significant (Carcinogen: 7,12-DIMETHYLBENZ[A]ANTHRACENE, 57-97-6, Dose [Inhibitor]: 0, 1 X 0.5 CM LONG SILASTIC IMPLANT 7 D PRIOR TO CARCINOGEN TREATMENT (STUDY DURATION: 111 D), Route [Inhibitor]: SUBCUTANEOUS IMPLANT, Species: RAT, Strain/Sex: SPRAGUE-DAWLEY/FEMALE, Target Tissue: Type of Lesion: MAMMARY GLAND: CARCINOMA, Dose [Carcinogen]: 20 MG IN 1 ML CORN OIL ADMINISTERED ON DAYS 50 TO 52 OF AGE, Promoter: NONE USED); 68%, 44%, 35%, not significant (Carcinogen: 7,12-DIMETHYLBENZ[A]ANTHRACENE, 57-97-6, Dose [Inhibitor]: 0, 1 X 1 CM LONG SILASTIC IMPLANT 7 D PRIOR TO CARCINOGEN TREATMENT (STUDY DURATION: 111 D), Route [Inhibitor]: SUBCUTANEOUS IMPLANT, Species: RAT, Strain/Sex: SPRAGUE-DAWLEY/FEMALE, Target Tissue: Type of Lesion: MAMMARY GLAND: CARCINOMA, Dose [Carcinogen]: 20 MG IN 1 ML CORN OIL ADMINISTERED ON DAYS 50 TO 52 OF AGE, Promoter: NONE USED); 68%, 22%, 68%, p<0.01 (Carcinogen: 7,12-DIMETHYLBENZ[A]ANTHRACENE, 57-97-6, Dose [Inhibitor]: 0, 1 X 3 CM LONG SILASTIC IMPLANT 7 D PRIOR TO CARCINOGEN TREATMENT (STUDY DURATION: 111 D), Route [Inhibitor]: SUBCUTANEOUS IMPLANT, Species: RAT, Strain/Sex: SPRAGUE-DAWLEY/FEMALE, Target Tissue: Type of Lesion: MAMMARY GLAND: CARCINOMA, Dose [Carcinogen]: 20 MG IN 1 ML CORN OIL ADMINISTERED ON DAYS 50 TO 52 OF AGE, Promoter: NONE USED); 68%, 11%, 84%, p<0.01 (Carcinogen: 7,12-DIMETHYLBENZ[A]ANTHRACENE, 57-97-6, Dose [Inhibitor]: 0, 3 X 3 CM LONG SILASTIC IMPLANT 7 D PRIOR TO CARCINOGEN TREATMENT (STUDY DURATION: 111 D), Route [Inhibitor]: SUBCUTANEOUS IMPLANT, Species: RAT, Strain/Sex: SPRAGUE-DAWLEY/FEMALE, Target Tissue: Type of Lesion: MAMMARY GLAND: CARCINOMA, Dose [Carcinogen]: 20 MG IN 1 ML CORN OIL ADMINISTERED ON DAYS 50 TO 52 OF AGE, Promoter: NONE USED); 68%, 4%, 94%, p<0.01 (Carcinogen: 7,12-DIMETHYLBENZ[A]ANTHRACENE, 57-97-6, Dose [Inhibitor]: 0, 6 X 3 CM LONG SILASTIC IMPLANT 7 D PRIOR TO CARCINOGEN TREATMENT (STUDY DURATION: 111 D), Route [Inhibitor]: SUBCUTANEOUS IMPLANT, Species: RAT, Strain/Sex: SPRAGUE-DAWLEY/FEMALE, Target Tissue: Type of Lesion: MAMMARY GLAND: CARCINOMA, Dose [Carcinogen]: 20 MG IN 1 ML CORN OIL ADMINISTERED ON DAYS 50 TO 52 OF AGE, Promoter: NONE USED); 8/15 (53%), 6/15 (40%), 25%, not significant (Carcinogen: N-NITROBIS(2-OXOPROPYL)AMINE, 60599-38-4, Dose [Inhibitor]: 0, 350 MG/KG ONCE ON DAY 1 OF STUDY (STUDY DURATION: 70 D), Route [Inhibitor]: INTRAPERITONEAL, Species: HAMSTER, Strain/Sex: SYRIAN/FEMALE, Target Tissue: Type of Lesion: PANCREAS: CARCINOMA, Dose [Carcinogen]: 70 MG/KG ONCE ON DAY 1 OF STUDY THEN ONCE ON DAYS 17 AND 32 OF STUDY, Promoter: ETHIONINE, 67-21-0, METHIONINE, 63-68-3, Promoter: ETHIONINE, 67-21-0, METHIONINE, 63-68-3). For the same molecule, the “tumour outcome (control, treated, inhibition, significance)” value (Carcinogen: N-NITROSOBIS(2-OXOPROPYL)AMINE, 60599-38-4, Dose [Inhibitor]: 0, 175 MG/KG ONCE ON DAY 1 OF STUDY (STUDY DURATION: 70 D), Route [Inhibitor]: INTRAPERITONEAL, Species: HAMSTER, Strain/Sex: SYRIAN/FEMALE, Target Tissue: Type of Lesion: PANCREAS: CARCINOMA, Dose [Carcinogen]: 70 MG/KG ONCE ON DAY 1 OF STUDY THEN ONCE ON DAYS 17 AND 32 OF STUDY, Promoter: ETHIONINE, 67-21-0, METHIONINE, 63-68-3, Promoter: ETHIONINE, 67-21-0, METHIONINE, 63-68-3) is 8/15 (53%), 9/16 (56%), -7%, not significant.

For `S=C=NCCCCCCCCCCc1ccccc1`, the “tumour outcome (control, treated, inhibition, significance)” value reads like this: (Carcinogen: 4-(METHYLNITROSAMINO)-1-(3-PYRIDYL)-1-BUTANONE, 64091-91-4, Dose [Inhibitor]: 0, 0.04 UMOL ONCE 2 HR PRIOR TO CARCINOGEN DOSE (STUDY DURATION: 16 WK), Route [Inhibitor]: GAVAGE, Species: MOUSE, Strain/Sex: STRAIN-A/FEMALE, Target Tissue: Type of Lesion: LUNG: ADENOMA, Dose [Carcinogen]: 10 UMOL IN 0.1 ML SALINE ONCE, Promoter: NONE USED) 100%, 100%, 0%, not significant; (Carcinogen: 4-(METHYLNITROSAMINO)-1-(3-PYRIDYL)-1-BUTANONE, 64091-91-4, Dose [Inhibitor]: 0, 0.1 UMOL ONCE 2 HR PRIOR TO CARCINOGEN DOSE (STUDY DURATION: 16 WK), Route [Inhibitor]: GAVAGE, Species: MOUSE, Strain/Sex: STRAIN-A/FEMALE, Target Tissue: Type of Lesion: LUNG: ADENOMA, Dose [Carcinogen]: 10 UMOL IN 0.1 ML SALINE ONCE, Promoter: NONE USED) 100%, 100%, 0%, not significant; (Carcinogen: 4-(METHYLNITROSAMINO)-1-(3-PYRIDYL)-1-BUTANONE, 64091-91-4, Dose [Inhibitor]: 0, 0.2 UMOL ONCE 2 HR PRIOR TO CARCINOGEN DOSE (STUDY DURATION: 16 WK), Route [Inhibitor]: GAVAGE, Species: MOUSE, Strain/Sex: STRAIN-A/FEMALE, Target Tissue: Type of Lesion: LUNG: ADENOMA, Dose [Carcinogen]: 10 UMOL IN 0.1 ML SALINE ONCE, Promoter: NONE USED) 100%, 70%, 30%, p<0.05.

Consider `CC(=O)NCCCCCCNC(C)=O`, for which the “tumour outcome (control, treated, inhibition, significance)” value is given as 13/13 (100%), 13/13 (100%), 0%, not significant (Carcinogen: 7,12-DIMETHYLBENZ[A]ANTHRACENE, 57-97-6, Dose [Inhibitor]: 0, 1% IN DRINKING WATER FOR DURATION OF STUDY (STUDY DURATION: 13 WK), Route [Inhibitor]: ORAL, Species: HAMSTER, Strain/Sex: SYRIAN/MALE, Target Tissue: Type of Lesion: CHEEK POUCH: TUMOR, Dose [Carcinogen]: 0.5% IN ACETONE/HEAVY MINERAL OIL (1:20) 2/WK FOR 11 WK, Promoter: NONE USED); 13/13 (100%), 13/13 (100%), 0%, not significant (Carcinogen: 7,12-DIMETHYLBENZ[A]ANTHRACENE, 57-97-6, Dose [Inhibitor]: 0, 500 MG/KG BW 3/WK FOR DURATION OF STUDY (STUDY DURATION: 13 WK), Route [Inhibitor]: INTRAPERITONEAL, Species: HAMSTER, Strain/Sex: SYRIAN/MALE, Target Tissue: Type of Lesion: CHEEK POUCH: TUMOR, Dose [Carcinogen]: 0.5% IN ACETONE/HEAVY MINERAL OIL (1:20) 2/WK FOR 11 WK, Promoter: NONE USED); 18/20 (90%), 17/20 (85%), 6% not significant (Carcinogen: N-METHYL-N-NITROSOUREA [684-93-5], Dose [Inhibitor]: 1000 PPM IN DIET FOR 19 WK BEGINNING 1 WK PRIOR TO FIRST CARCINOGEN DOSE (STUDY DURATION: 19 WK), Route [Inhibitor]: ORAL, Species: RAT, Strain/Sex: SPRAGUE-DAWLEY/FEMALE, Target Tissue: Type of Lesion: MAMMARY GLAND: TUMOR, Dose [Carcinogen]: 40 MG/KG BW ONCE (STUDY DURATION: 19 WK), Promoter: NONE); 18/20 (90%), 17/20 (85%), 6%, not significant (Carcinogen: N-METHYL-N-NITROSOUREA [684-93-5], Dose [Inhibitor]: 2000 PPM IN DIET FOR 19 WK BEGINNING 1 WK PRIOR TO FIRST CARCINOGEN DOSE (STUDY DURATION: 19 WK), Route [Inhibitor]: ORAL, Species: RAT, Strain/Sex: SPRAGUE-DAWLEY/FEMALE, Target Tissue: Type of Lesion: MAMMARY GLAND: TUMOR, Dose [Carcinogen]: 40 MG/KG BW ONCE (STUDY DURATION: 19 WK), Promoter: NONE).
